Patent EP3441078A1, “PHARMACEUTICAL PRODUCT FOR TREATING LUPUS ERY[…] COMBINED IMMUNE DEFECT, AND PREPARATION AND APPLICATION THEREOF” (Beijing Lu De Kai Qi Co., Ltd., priority 2016, dated 2017)
Like-named read-outs stand apart in the source and are kept apart here. Marks after values point to notes of the source that are not given here.

Experiments:
[1] = test system: sperm abnormality in mice; conditions: male mice, 40mg/kg•bw, positive control
Description: 1. […] The walnut extract, wormwood extract, American ginseng extract and shí hú extract were respectively taken, treated in a 70°C water bath for 1 hour, soaked for 12 hours, and concentrated for testing.
(§1) The healthy Kunming mice provided by the Experimental Animal Center of the National Institute for the Control of Pharmaceutical and Biological Products were selected.
50 sexually mature male mice weighing 30-35 g were randomly divided into 5 groups. […] The doses of the anti-lupus erythematosus pharmaceutical product for combined immunization according to the present invention were 2.00, 4.00, and 6.00 g/kg•bw, respectively, and the desired concentration were adjusted with distilled water. The mice were administered via oral gavage once a day for 5 days, and the animals were sacrificed 30 days after the last gavage. The epididymis was acquired and sectioned and stained with eosin. Five animals were counted in each group and 1000 intact sperm were counted per animal. The incidence of sperm abnormality (in percentage) was calculated and statistically processed.

[2] = test system: polychromatic erythrocytes in bone marrow of mice; conditions: 50mg/kg•bw, positive control; for Number of Micronuclei(in Ge): 5000 cells inspected; for Permillage of Micronuclei: P<0.01 vs negative control
Description: as §1
The assay was carried out via oral gavage and the administration was performed twice at intervals of 24 hrs. 50 mice weighing 25-30 g were randomly divided into 5 groups according to body weight, 10 in each group, half male and half female. […] The doses of the anti-lupus erythematosus pharmaceutical product for combined immunization according to the present invention were 2.00, 4.00, and 6.00 g/kg•bw, respectively, which were adjusted to the desired concentration with distilled water. The animals were sacrificed by cervical dislocation six hours after the last administration of the anti-lupus erythematosus pharmaceutical product for combined immunization according to the present invention. The bone marrow of sternum was acquired and diluted with calf serum, smeared, fixed in methanol, and stained with Giemsa. Under the light microscope, 1000 polychromatic erythrocytes (PRC) were measured per animal, and the incidence of micronucleus was determined by the permillage of micronucleus-containing PRC and statistically processed. […] Kunming healthy mice provided by Laboratory Animal Center of National Institutes for Food and Pharmaceutical product Control were selected.
The test was carried out by two-time intragastric administration at an interval of 24 hours.50 mice weighing 25-30 g were randomly divided into 5 groups according to their body weight. They were randomly divided into 5 groups according to their body weight, with 10 mice in each group, half male and half female. […] The doses of the anti-lupus erythematosus pharmaceutical product for combined immunization of the present invention were 2.00, 4.00 and 6.00 g/kg•bw respectively, and were mixed with distilled water to the desired concentration. The animals were sacrificed by cervical dislocation 6 hours after the last administration of the anti-lupus erythematosus pharmaceutical product for combined immunization of the present invention. The sternum bone marrow was diluted with calf serum, fixed with methanol, and stained with Giemsa. Under the light microscope, 1000 polychromatic erythrocytes (PRC) were counted per animal, and the incidence of micronuclei was measured by the permillage of micronucleus-containing PRC and statistically processed.

`O=P1(N(CCCl)CCCl)NCCCO1` (stereo not drawn) [cp, cyclophosphamide] was tested, and the “Number of Abnormal Sperms(in Ge)” value ([1]; 5000 sperms inspected) was 480, the “Percentage of Abnormal Sperms” value ([1]; P<0.01 vs negative control) was 9.6* % and the “Number of Micronuclei(in Ge)” value ([2]; Female mice) was 150. For the same molecule, the “Permillage of Micronuclei” value ([2]; Female mice) was 30.0* ‰, the “Number of Micronuclei(in Ge)” value ([2]; Male mice) was 150 and the “Permillage of Micronuclei” value ([2]; Male mice) was 30.0* ‰.
